Source: the NIST ThermoML archive (doi:10.1016/j.fluid.2004.09.013)
Numbers after ± are expanded uncertainties.

Conditions: for mass density: Fluid (supercritical or subcritical phases), Vibrating tube method

C/C=C/C [(E)-2-butene]
Conditions	Critical density [kg/m3]	mass density [kg/m3]
453.25 K, 34989 kPa	–	504.85 ± 1.3
453.25 K, 39997 kPa	–	515.79 ± 1.4
458.25 K, 5018 kPa	–	143.71 ± 0.66
458.25 K, 15001 kPa	–	424.61 ± 0.95
458.25 K, 20004 kPa	–	451.96 ± 1.1
458.25 K, 24994 kPa	–	471.69 ± 1.1
458.25 K, 30004 kPa	–	487.34 ± 1.2
458.25 K, 34994 kPa	–	500.33 ± 1.3
458.25 K, 40004 kPa	–	511.57 ± 1.4
458.26 K, 9992 kPa	–	376.95 ± 0.89
463.25 K, 5019 kPa	–	132.86 ± 0.64
463.25 K, 9998 kPa	–	364.93 ± 0.87
463.25 K, 14997 kPa	–	416.89 ± 0.94
463.25 K, 20001 kPa	–	445.66 ± 1
463.25 K, 24994 kPa	–	466.25 ± 1.1
463.25 K, 29992 kPa	–	482.44 ± 1.2
463.25 K, 34997 kPa	–	495.87 ± 1.3
463.25 K, 39985 kPa	–	507.37 ± 1.4
468.25 K, 5019 kPa	–	124.67 ± 0.62
468.25 K, 14984 kPa	–	408.44 ± 0.92
468.25 K, 19991 kPa	–	439.31 ± 1
468.25 K, 24990 kPa	–	460.78 ± 1.1
468.25 K, 29991 kPa	–	477.55 ± 1.2
468.25 K, 34993 kPa	–	491.38 ± 1.3
468.25 K, 39991 kPa	–	503.2 ± 1.4
468.26 K, 9993 kPa	–	352.22 ± 0.85
473.25 K, 5018 kPa	–	118.06 ± 0.6
473.25 K, 9998 kPa	–	339.4 ± 0.83
473.25 K, 15002 kPa	–	400.67 ± 0.91
473.25 K, 19991 kPa	–	432.96 ± 1
473.25 K, 24985 kPa	–	455.31 ± 1.1
473.25 K, 29991 kPa	–	472.65 ± 1.2
473.25 K, 35002 kPa	–	486.9 ± 1.3
473.25 K, 39993 kPa	–	499.03 ± 1.4
478.25 K, 5018 kPa	–	112.62 ± 0.57
478.25 K, 9993 kPa	–	326 ± 0.8
478.25 K, 14989 kPa	–	392.47 ± 0.89
478.25 K, 19985 kPa	–	426.52 ± 0.99
478.25 K, 25003 kPa	–	449.85 ± 1.1
478.25 K, 29992 kPa	–	467.75 ± 1.2
478.25 K, 35005 kPa	–	482.42 ± 1.3
478.25 K, 40012 kPa	–	494.85 ± 1.4
483.25 K, 5018 kPa	–	107.95 ± 0.55
483.25 K, 9988 kPa	–	312.49 ± 0.77
483.25 K, 14996 kPa	–	384.28 ± 0.88
483.25 K, 19982 kPa	–	420.06 ± 0.98
483.25 K, 25007 kPa	–	444.4 ± 1.1
483.25 K, 29987 kPa	–	462.83 ± 1.2
483.25 K, 35000 kPa	–	477.93 ± 1.2
483.25 K, 39990 kPa	–	490.66 ± 1.3
488.25 K, 5018 kPa	–	103.9 ± 0.53
488.25 K, 9985 kPa	–	299.1 ± 0.75
488.25 K, 14997 kPa	–	376.01 ± 0.86
488.25 K, 20002 kPa	–	413.74 ± 0.97
488.25 K, 25005 kPa	–	438.9 ± 1.1
488.25 K, 29988 kPa	–	457.94 ± 1.1
488.25 K, 34992 kPa	–	473.43 ± 1.2
488.25 K, 40013 kPa	–	486.57 ± 1.3
493.25 K, 5018 kPa	–	100.36 ± 0.5
493.25 K, 9986 kPa	–	285.99 ± 0.72
493.25 K, 14990 kPa	–	367.61 ± 0.85
493.25 K, 20001 kPa	–	407.28 ± 0.95
493.25 K, 25006 kPa	–	433.4 ± 1.1
493.25 K, 29986 kPa	–	453.04 ± 1.1
493.25 K, 35005 kPa	–	469.02 ± 1.2
493.25 K, 39997 kPa	–	482.38 ± 1.3
498.25 K, 5018 kPa	–	97.2 ± 0.48
498.25 K, 9992 kPa	–	273.51 ± 0.7
498.25 K, 14982 kPa	–	359.21 ± 0.83
498.25 K, 19993 kPa	–	400.8 ± 0.94
498.25 K, 25004 kPa	–	427.91 ± 1
498.25 K, 29983 kPa	–	448.16 ± 1.1
498.25 K, 35000 kPa	–	464.56 ± 1.2
498.25 K, 39994 kPa	–	478.26 ± 1.3
503.25 K, 5019 kPa	–	94.38 ± 0.46
503.25 K, 9995 kPa	–	261.54 ± 0.67
503.25 K, 14996 kPa	–	351.04 ± 0.82
503.25 K, 19991 kPa	–	394.38 ± 0.93
503.25 K, 25000 kPa	–	422.42 ± 1
503.25 K, 30008 kPa	–	443.38 ± 1.1
503.25 K, 35007 kPa	–	460.15 ± 1.2
503.25 K, 39992 kPa	–	474.14 ± 1.3
508.25 K, 5017 kPa	–	91.73 ± 0.44
508.25 K, 9986 kPa	–	249.99 ± 0.64
508.25 K, 14991 kPa	–	342.7 ± 0.8
508.25 K, 19987 kPa	–	387.81 ± 0.92
508.25 K, 24998 kPa	–	416.93 ± 1
508.25 K, 30007 kPa	–	438.53 ± 1.1
508.25 K, 34991 kPa	–	455.68 ± 1.2
508.25 K, 39996 kPa	–	470.06 ± 1.3
513.25 K, 5019 kPa	–	89.39 ± 0.42
513.25 K, 9982 kPa	–	239.32 ± 0.62
513.25 K, 14985 kPa	–	334.4 ± 0.79
513.25 K, 19985 kPa	–	381.11 ± 0.9
513.25 K, 24987 kPa	–	411.43 ± 1
513.25 K, 29999 kPa	–	433.67 ± 1.1
513.25 K, 34992 kPa	–	451.29 ± 1.2
513.25 K, 39993 kPa	–	465.98 ± 1.3
518.24 K, 30001 kPa	–	428.87 ± 1.1
518.24 K, 35000 kPa	–	446.94 ± 1.2
518.25 K, 5016 kPa	–	87.15 ± 0.4
518.25 K, 9990 kPa	–	229.8 ± 0.6
518.25 K, 14984 kPa	–	326.26 ± 0.77
518.25 K, 20002 kPa	–	374.92 ± 0.89
518.25 K, 24995 kPa	–	406.05 ± 1
518.25 K, 39988 kPa	–	461.92 ± 1.3
523.24 K, 24994 kPa	–	400.62 ± 0.99
523.24 K, 39996 kPa	–	457.91 ± 1.3
523.25 K, 5016 kPa	–	85.12 ± 0.39
523.25 K, 9982 kPa	–	220.69 ± 0.63
523.25 K, 14998 kPa	–	318.44 ± 0.8
523.25 K, 20000 kPa	–	368.56 ± 0.89
523.25 K, 29990 kPa	–	424.03 ± 1.1
523.25 K, 34989 kPa	–	442.55 ± 1.2
Liquid, visual observation in a variable volume cell:FP	236.4 ± 4.7	–

Liquid
Conditions	Critical pressure [kPa]	Critical temperature [K]
–	4027.3 ± 11	428.61 ± 0.11
